Measured values: the supplement of paper PMC10331698
± gives the standard deviation of the averaged measurements.

Columns and labels:
Test in all cases: level (log10 ratio to DMSO vehicle control); higher = higher biomarker level / cell amount than vehicle control
[1] = compound: OCC(F)(F)C(F)(F)C(F)(F)C(F)(F)C(F)(F)C(F)(F)CO [1H,1H,8H,8H-Perfluorooctane-1,8-diol] (in DMSO)
Description: (§1)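 BioMAP Diversity Plus panel of 12 human primary cell co-culture systems (3C, 4H, LPS, SAg, BT, BF4T, BE3C, CASM3C, HDF3CGF, KF3CT, MyoF, Mphg). Compounds were added 1 h before stimulation and left for 24 h (MyoF 48 h; BT 72 h for soluble read-outs or 6 d for IgG). Biomarkers were read by ELISA, cytotoxicity by SRB, PBMC viability and proliferation by Alamar Blue. Each well value was divided by the mean of 8 DMSO control wells on the same plate and log10 transformed; duplicate blinded samples were tested at 4 concentrations.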

[2] = compound: CO[Si](C)(CCC(F)(F)C(F)(F)C(F)(F)C(F)(F)C(F)(F)C(F)(F)F)OC [Dimethoxymethyl((perfluorohexyl)ethyl)silane] (in DMSO)
Description: as §1

[3] = compound: O=C(O)C(F)(F)C(F)(F)C(F)(F)C(F)(F)C(F)(F)C(F)(F)C(F)(F)C(F)(F)F [Perfluorononanoic acid] (in DMSO)
Description: as §1

[4] = compound: C[C@@H]1C[C@H]2[C@@H]3CCC4=CC(=O)C=C[C@]4(C)[C@@]3(F)[C@@H](O)C[C@]2(C)[C@@]1(O)C(=O)COP(=O)(O)O [Dexamethasone sodium phosphate] (in DMSO)
Description: as §1

[5] = compound: O=C(O)C(F)(OC(F)(F)C(F)(F)C(F)(F)F)C(F)(F)F [Ammonium perfluoro-2-methyl-3-oxahexanoate] (in Water)
Description: as §1

[6] = compound: O=C(O)C(F)(F)C(F)(F)C(F)(F)OC(F)(F)F [Perfluoro(4-methoxybutanoic) acid] (in DMSO)
Description: as §1

Test System	level (log10) ([1]; 6700 nM)	level (log10) ([1]; 20000 nM)	level (log10) ([1]; 60000 nM)	level (log10) ([2]; 6700 nM)	level (log10) ([2]; 20000 nM)	level (log10) ([3]; 6700 nM)	level (log10) ([3]; 20000 nM)	level (log10) ([4]; 1500 nM)	level (log10) ([4]; 4400 nM)	level (log10) ([4]; 13000 nM)	level (log10) ([4]; 40000 nM)	level (log10) ([5]; 6700 nM)	level (log10) ([5]; 20000 nM)	level (log10) ([5]; 60000 nM)	level (log10) ([6]; 6700 nM)	level (log10) ([6]; 20000 nM)	level (log10) ([6]; 60000 nM)
LPS:SRB	0.0005 ± 0.0092	-0.003 ± 0.0014	-0.0035 ± 0.023	-0.0025 ± 0.0064	0.003 ± 0.0085	-0.0065 ± 0.00071	0.0045 ± 0.0078	0.008 ± 0.0085	-0.012 ± 0.0071	-0.003 ± 0.0099	0.006 ± 0.031	-0.009 ± 0.0028	-0.0075 ± 0.00071	-0.009 ± 0.0014	-0.0085 ± 0.00071	-0.008 ± 0.0071	-0.0085 ± 0.0035
LPS:IL-1alpha	-0.0355 ± 0.049	-0.064 ± 0.016	-0.004 ± 0.017	0.005 ± 0.03	0.0235 ± 0.0092	-0.0315 ± 0.0064	-0.03 ± 0.014	-0.0215 ± 0.0035	-0.0475 ± 0.1	-0.0575 ± 0.035	-0.0835 ± 0.08	0.0325 ± 0.04	0.0475 ± 0.015	0.019 ± 0.062	-0.023 ± 0.013	-0.0195 ± 0.04	0.0005 ± 0.09
BT:sIL-2	0.0065 ± 0.063	0.008 ± 0.027	0.0055 ± 0.04	-0.0455 ± 0.12	0.0425 ± 0.026	0.0075 ± 0.039	0.0105 ± 0.011	-0.442 ± 0.033	-0.451 ± 0.12	-0.458 ± 0.039	-0.456 ± 0.032	-0.093 ± 0.0099	-0.0525 ± 0.015	-0.124 ± 0.028	-0.013 ± 0.0028	-0.006 ± 0.052	0.029 ± 0.051
BF4T:CD54/ICAM-1	-0.0275 ± 0.0092	-0.015 ± 0.013	-0.029 ± 0.017	-0.006 ± 0.0071	-0.008 ± 0.0099	-0.0035 ± 0.021	-0.05 ± 0.014	-0.003 ± 0.021	-0.0105 ± 0.011	-0.0205 ± 0.0021	-0.0005 ± 0.015	-0.0155 ± 0.012	-0.0265 ± 0.016	-0.0075 ± 0.0021	-0.005 ± 0.024	-0.013 ± 0.027	-0.0005 ± 0.0035
LPS:CD141/Thrombomodulin	-0.008 ± 0.027	-0.032 ± 0.0042	0.028 ± 0.034	0.024 ± 0.034	0.006 ± 0.016	-0.018 ± 0.048	-0.018 ± 0.017	0.05 ± 0.031	0.035 ± 0.028	0.0125 ± 0.039	0.032 ± 0.027	-0.013 ± 0.031	-0.0025 ± 0.0092	-0.036 ± 0.028	-0.028 ± 0.023	-0.0285 ± 0.052	-0.0195 ± 0.053
4H:CCL2/MCP-1	-0.058 ± 0.04	-0.0485 ± 0.018	-0.012 ± 0.02	-0.05 ± 0.033	0.011 ± 0.12	-0.074 ± 0.013	-0.0405 ± 0.005	-0.0075 ± 0.018	0.005 ± 0.033	0.017 ± 0.041	0.043 ± 0.025	0.0005 ± 0.029	0.007 ± 0.037	0.008 ± 0.051	-0.0235 ± 0.013	-0.026 ± 0.0028	0.0005 ± 0.061
BE3C:HLA-DR	0.009	-0.0245 ± 0.0064	-0.039 ± 0.014	-0.0045 ± 0.0021	-0.0235 ± 0.012	-0.039 ± 0.064	-0.066 ± 0.02	0.0175 ± 0.026	-0.0205 ± 0.033	0.0195 ± 0.011	0.035 ± 0.017	-0.022 ± 0.013	-0.0015 ± 0.018	-0.0265 ± 0.0021	-0.0005 ± 0.019	0.007 ± 0.0071	0.021 ± 0.021
LPS:CD62E/E-Selectin	-0.0495 ± 0.013	-0.0295 ± 0.022	-0.044 ± 0.024	0.0135 ± 0.011	0.01 ± 0.0099	-0.009 ± 0.013	-0.01 ± 0.0085	0 ± 0.0014	-0.015 ± 0.0014	-0.0105 ± 0.00071	-0.0115 ± 0.005	-0.0115 ± 0.0078	-0.005 ± 0.016	-0.004 ± 0.0085	-0.009 ± 0.0099	-0.007 ± 0.014	-0.002
BE3C:CD87/uPAR	-0.002 ± 0.0085	0.026 ± 0.0085	-0.0195 ± 0.00071	0.0225 ± 0.013	0.0075 ± 0.0078	0.046 ± 0.013	0.0495 ± 0.019	-0.08 ± 0.048	-0.102 ± 0.0057	-0.108 ± 0.033	-0.096 ± 0.0042	0.011 ± 0.034	0.0215 ± 0.0078	0.027 ± 0.0085	0.0145 ± 0.011	-0.0195 ± 0.019	0.002 ± 0.0099
4H:SRB	0.0105 ± 0.0021	0.006 ± 0.0071	-0.01 ± 0.025	-0.015 ± 0.013	0.0065 ± 0.00071	0.002 ± 0.0014	-0.008 ± 0.0042	0.001 ± 0.011	-0.0135 ± 0.005	0.005 ± 0.014	0.007 ± 0.038	-0.0075 ± 0.012	-0.018 ± 0.014	-0.0115 ± 0.005	-0.01 ± 0.0014	-0.018 ± 0.0099	-0.0155 ± 0.0021
BF4T:IL-1alpha	-0.0105 ± 0.011	-0.0135 ± 0.013	0.0145 ± 0.029	-0.0245 ± 0.0078	0.014 ± 0.035	-0.043 ± 0.0099	-0.029 ± 0.025	0.0045 ± 0.028	-0.001 ± 0.013	-0.0165 ± 0.013	0.004 ± 0.023	0.018 ± 0.03	0.0055 ± 0.036	-0.0085 ± 0.021	0.007 ± 0.013	0.008 ± 0.028	-0.003 ± 0.023
4H:VEGFR2	-0.0165 ± 0.042	0.01 ± 0.018	0.047 ± 0.068	-0.023	-0.001 ± 0.027	-0.0565 ± 0.039	-0.033 ± 0.0099	0.025 ± 0.0057	-0.0665 ± 0.057	-0.0115 ± 0.069	-0.004 ± 0.059	0.0035 ± 0.04	0.007 ± 0.014	0.0095 ± 0.018	0.009 ± 0.033	0.019 ± 0.038	0.0075 ± 0.011
BE3C:CXCL9/MIG	0.004 ± 0.0085	0 ± 0.016	-0.006 ± 0.0071	0.002 ± 0.0042	0.001 ± 0.0071	-0.019 ± 0.013	-0.0195 ± 0.0021	-0.0065 ± 0.019	0.003 ± 0.02	-0.01 ± 0.014	-0.0085 ± 0.00071	0.0065 ± 0.013	0.0045 ± 0.005	0 ± 0.0042	0.0005 ± 0.013	-0.006 ± 0.016	-0.0005 ± 0.00071
BF4T:uPA	-0.005 ± 0.0042	-0.0035 ± 0.0092	-0.0035 ± 0.012	-0.0095 ± 0.00071	-0.014 ± 0.0085	-0.01 ± 0.054	0.0335 ± 0.032	0.006 ± 0.025	-0.013 ± 0.045	-0.002 ± 0.013	-0.002 ± 0.0028	-0.0025 ± 0.011	-0.0005 ± 0.0078	0.0035 ± 0.022	-0.009 ± 0.0085	-0.012	0.0045 ± 0.005
BT:PBMC Cytotoxicity	0.0065 ± 0.0092	-0.0145 ± 0.011	-0.0595 ± 0.011	-0.0015 ± 0.0021	0.023 ± 0.0028	-0.0065 ± 0.036	0.0515 ± 0.015	-0.0915 ± 0.00071	-0.102 ± 0.028	-0.107 ± 0.0064	-0.0975 ± 0.039	-0.083 ± 0.016	-0.095 ± 0.0099	-0.0905 ± 0.023	0.0095 ± 0.0078	-0.0025 ± 0.0064	0.0225 ± 0.021
